# Laboratory results taken from US20110124888A1, “STYRYLBENZOFURAN DERIVATIVES AS INHIBITORS FOR BETA-AMYLOID FIBRIL FORMATION AND PREPARATION METHOD THEREOF” (Korea Institute of Science and Technology, priority 2008, published 2011).
# Columns and labels:
# [1] = target: T1, beta-amyloid 42 (Aβ42) (Homo sapiens, UniProt P05067); experiment: Inhibitory effect on the formation of beta-amyloid fibrils in vitro (ThT fluorescence assay); type: biochemical; conditions: for IC50: In vitro ThT analysis (Aβ42: 25 μM), experiment of Table 1; for % inhibition against the beta-amyloid 42 formation compared with curcumin: Tables 1 to 6, relative to curcumin
# T1 construct: Beta-amyloid 42 (Aβ42) was dissolved in dimethylsulfoxide (DMSO)
# T1 sequence (P05067 672-713 limits assumed): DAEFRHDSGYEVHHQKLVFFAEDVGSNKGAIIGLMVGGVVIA
# Experimental: In order to investigate the inhibitory effect on the formation of beta-amyloid fibrils, the inventive compounds were examined as follows:
# Beta-amyloid 42 (Aβ42) was dissolved in dimethylsulfoxide (DMSO) to form a […] Aβ42 stock solution. In addition, ThT (thioflavin T) was dissolved in distilled water to a concentration of 1 mM and subsequently diluted with 50 mM glycin buffer (pH 8.5) to yield a 5 μM ThT stock solution.
# 45 μL of PBS (phosphate buffer saline, pH 7.4) was added to each of a 96 well fluorescence microplate (white, F-bottom). 5 μL of the 250 μM Aβ42 stock solution was added to each well. The final concentration of each compound obtained in Examples was in a range of 10 to 0.001 μM by adding 2 μL of a solution, which is prepared by dissolving the subject compounds obtained in Examples in DMSO, to each well. At this time, the final concentration of Aβ42 in each well was 25 μM. The plate was then incubated at room temperature for 1 hr, and 150 μL of the 5 μM ThT stock solution was added to each well.
# The fluorescence intensity of each well was determined with the multi label fluorescence counter (LS-55 Luminescence spectrometer, Perkin Elmer) at an excitation wavelength of 450 nm (excitation slit width: 10 nm) and an emission wavelength of 482 nm (emission slit width: 10 nm), while adjusting counting time to 1 second. The control group was prepared by adding PBS solution, Aβ42 and DMSO, without adding the inventive compound. % Inhibition on the formation of beta-amyloid fibrils was calculated in accordance with the following equation and IC5O was calculated by using GraphPad Prism version 4.03 Program.
# % Inhibition=[1−(C−D)/(A−B)]×100 Equation 1%
# A (control group): fluorescence intensity in a group treated with PBS solution, Aβ42, and DMSO
# B (blank): fluorescence intensity in a group treated with PBS solution and DMSO
# C (experimental group): fluorescence intensity in a group treated with PBS solution, Aβ42, DMSO, and the inventive compound
# D (compensation value to the experimental group): fluorescence intensity in a group treated with PBS solution, DMSO, and the inventive compound
# [2] = test system: congo red-positive beta-amyloid plagues; experiment: Immunohistochemistry: congo red-positive beta-amyloid plaque count in hippocampus and cortex of transgenic mice; type: in vivo; conditions: vs Tg group
# Experimental: The transgenic mice were screened and drug was administered thereto as described in 1) and 2) of Experimental Example 4. The brain was separated from the transgenic mouse and fixed in 10% neutral formalin solution. A region of the brain including the hippocampus and the cortex were subjected to removal, washing, dehydration and paraffin infiltration to obtain paraffin block including the brain tissue. The paraffin block was subjected to thin section in thickness of 8 μm to obtain the sections of all regions of hippocampus. Among them, 10 sections were elected at regular intervals. They were deparaffinized, hydrated, immersed in Mayer's hematoxylin for 1 min and rinsed with tap water. The rinsed tissue was reacted in an alkaline sodium chloride solution for 20 min, after then was reacted in an alkaline congo red solution for 20 min. The resulting tissue was washed with 100% ethyl alcohol, cleared with xylene and mounted using a synthetic mounting medium. In the hippocampus and cortex regions of the tissue preparations strained with congo red, congo red-positive beta-amyloid plagues were counted.
# [3] = test system: transgenic double tg mice (APPswe, PSEN1 dE9); experiment: In vivo fear conditioning test in transgenic mice; conditions: 5 to 12 months of age, based on the freezing (%) of Tg vehicle group
# Experimental: The tails of 3-week old mice born from Male B6C3-Tg (APPswe, PSEN1 dE9, Jackson Laboratory Co., Maine, A) and female B6C3F1 (central Lab. Animal Inc., Korea) were cut in lengths of about 0.5 cm (tail biopsy). The genomic DNAs were extracted from the tail samples and subjected to a genotype analysis to screen transgenic double tg mice.
# From 5 months to 12 months after the birth, the mice were administered orally with the compound of Example 9, in an amount of 30 mg/kg or 100 mg/kg every day. As a comparative compound, tramiprosate (Aisen, P. S. et. al., Curr. Alzheimer Res. 2007, 4, 473) was used, which binds to beta-amyloid protein to inhibit the deposition and cytotoxicity to the protein. The compounds were administrated.
# 3) Fear Conditioning Test
# At the First day of training, the mice were placed in a conditioning box and adjusted for 2 min. The fear conditioning was performed with a conditional stimulus (CS) of 75 dB for 20 sec, together with an electrical stimulus (unconditional stimulus (US)) of 0.5 mA for final 2 sec in the conditional stimulus period. After 1 min, the animals were transferred to a cage. After 24 hrs, the retention test was performed. The animals were placed in the same conditioning box as used above and observed for 5 min. The freezing response was measured without CS and US. The freezing response is defined in the state of the animals keeping still except for breathing.
# [4] = target: beta-amyloid 42 (Homo sapiens, UniProt P05067); experiment: Biochemical test: content of beta-amyloid 42 in hippocampus tissue of transgenic mice; type: in vivo; conditions: hippocampus tissue, based on the content of beta amyloid 42 in the Tg group
# beta-amyloid 42, sequence (P05067 672-713 limits assumed): as above
Compound,melting point,IC50 [1],% inhibition against the beta-amyloid 42 formation compared with curcumin [1],"Reduction rate (%) of beta-amyloid plaques, cortex ([2]; 30 mg/kg)","Reduction rate (%) of beta-amyloid plaques, hippocampus ([2]; 30 mg/kg)",Total reduction rate (%) of beta-amyloid plaques ([2]; 30 mg/kg),"Reduction rate (%) of beta-amyloid plaques, cortex ([2]; 100 mg/kg)","Reduction rate (%) of beta-amyloid plaques, hippocampus ([2]; 100 mg/kg)",Total reduction rate (%) of beta-amyloid plaques ([2]; 100 mg/kg),Increase rate (fold) of freezing ([3]; 30 mg/kg orally every day),Increase rate (fold) of freezing ([3]; 100 mg/kg orally every day),Reduction rate (%) of beta amyloid 42 content ([4]; 30 mg/kg),Reduction rate (%) of beta amyloid 42 content ([4]; 100 mg/kg)
"CN(C)c1ccc(C=Cc2cc3cc(O)ccc3o2)cc1 [Compound 3, 5-Hydroxy-2-(4-dimethylaminostyryl)benzofuran]",177 to 178 °C,163 nM,superior % inhibition,,,,,,,,,,
"Cc1ccc2oc(C=Cc3ccc(N(C)C)cc3)cc2c1 [Compound 4, 5-methyl-2-(4-dimethylaminostyryl)benzofuran]",188 to 189 °C,128 nM,superior % inhibition,,,,,,,,,,
"COc1ccc2oc(C=Cc3ccc(N(C)C)c(OC)c3)cc2c1 [Compound 22, 5-methoxy-2-(3-methoxy-4-dimethylaminostyryl)benzofuran]",226.5 to 227.5 °C,156 nM,superior % inhibition,,,,,,,,,,
"NCCCS(=O)(=O)O [Tramiprosate, tramiprosate, reference compound]",,,,32%,7%,29%,12%,7%,11%,2.3 fold,1.8 fold,8%,16%
